Experimental data from PubChem BioAssay (NCI).
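Exposure lasted 48 hours, with cells grown in 96-well plates and compounds tested at five concentrations. TGI: total growth inhibition.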

Legend:
Assay in all cases: DTP human tumour cell line panel, 48 h
OVCAR-8 ovarian = tested on: OVCAR-8 ovarian
SW-620 colon = tested on: SW-620 colon
SNB-75 CNS = tested on: SNB-75 CNS
UO-31 renal = tested on: UO-31 renal
SK-MEL-28 melanoma = tested on: SK-MEL-28 melanoma
SK-MEL-2 melanoma = tested on: SK-MEL-2 melanoma
HCC-2998 colon = tested on: HCC-2998 colon
EKVX NSCLC = tested on: EKVX NSCLC
KM12 colon = tested on: KM12 colon
MDA-MB-435 = tested on: MDA-MB-435
NCI-H23 lung = tested on: NCI-H23 lung
K-562 leukemia = tested on: K-562 leukemia
SK-MEL-5 melanoma = tested on: SK-MEL-5 melanoma
CAKI-1 renal = tested on: CAKI-1 renal
HOP-62 NSCLC = tested on: HOP-62 NSCLC
RXF 393 renal = tested on: RXF 393 renal
TK-10 renal = tested on: TK-10 renal
A498 renal = tested on: A498 renal
SF-268 CNS = tested on: SF-268 CNS
NCI-H522 lung = tested on: NCI-H522 lung

SMILES | TGI (OVCAR-8 ovarian) [µM] | TGI (SW-620 colon) [µM] | TGI (SNB-75 CNS) [µM] | TGI (UO-31 renal) [µM] | TGI (SK-MEL-28 melanoma) [µM] | TGI (SK-MEL-2 melanoma) [µM] | TGI (HCC-2998 colon) [µM] | TGI (EKVX NSCLC) [µM] | TGI (KM12 colon) [µM] | TGI (MDA-MB-435) [µM] | TGI (NCI-H23 lung) [µM] | TGI (K-562 leukemia) [µM] | TGI (SK-MEL-5 melanoma) [µM] | TGI (CAKI-1 renal) [µM] | TGI (HOP-62 NSCLC) [µM] | TGI (RXF 393 renal) [µM] | TGI (TK-10 renal) [µM] | TGI (A498 renal) [µM] | TGI (SF-268 CNS) [µM] | TGI (NCI-H522 lung) [µM]
CCOC(=O)c1csc(NC(=O)CCN2CCCC2)n1 | > 100 | > 100 | > 100 | > 100 | > 100 | > 100 | > 100 | > 100 | > 100 | > 100 | > 100 | > 100 | > 100 | > 100 | > 100 | > 100 | > 100 |  |  | 
O=C(C(=C(I)I)c1ccccc1)c1ccccc1 | > 100 | > 100 |  | 58.8 | 94.7 | 38 |  | > 100 |  | > 100 | 88.8 | 21.4 | 30.9 | > 100 | 37.7 |  | 83.7 | 28.6 | > 100 | 
COc1ccc(C2c3cc4c(cc3OC(Nc3ccccc3)C2C)OCO4)cc1 (stereo unspecified) |  | > 100 | > 100 | > 100 | > 100 | > 100 | > 100 | 98.7 | > 100 | > 100 | > 100 | > 100 | > 100 | > 100 | > 100 | > 100 | > 100 | > 100 | > 100 | > 100
CCCn1cc2c3c(cccc31)C1C=C(C)CN(C)C1C2 (stereo unspecified) | 66.5 | 62.4 | 39.3 | 38.8 | 49.9 | 63.4 | 38 | 48 | 58 |  | 61.8 | 22.6 | 38.3 | 44.2 | 67.2 | 52.7 |  | 37.8 | 47.2 | 57.1
COc1cc(N=Nc2ccc(OC)c(S(=O)(=O)O)c2)c(C)cc1N=Nc1ccc(/C=C/c2ccc(N=[N+]([O-])c3ccc(/C=C/c4ccc(N=Nc5cc(C)c(N=Nc6ccc(OC)c(S(=O)(=O)O)c6)cc5OC)cc4S(=O)(=O)O)c(S(=O)(=O)O)c3)cc2S(=O)(=O)O)c(S(=O)(=O)O)c1 | > 100 | > 100 | > 100 | > 100 | > 100 | > 100 | > 100 | > 100 | > 100 |  | > 100 | > 100 | > 100 |  | > 100 | > 100 |  | > 100 | > 100 | > 100
